Measured values reported in ChEMBL document CHEMBL1158268, “Antiplatelet of vasorelaxing actions of some benzylisoquinoline and phenanthrene alkaloids” (1996).

Experiments:
Parameters in all cases: scale not given: the % may be the effect or the level left
Platelet [1] = assay: Inhibition of platelet-activity factor-induced platelet aggregation in rabbit platelet-rich plasma at 100 ug/ml by turbidimetric method; type: functional, Oryctolagus cuniculus
Platelet [2] = assay: Inhibition of adenosine diphosphate-induced platelet aggregation in rabbit platelet-rich plasma at 100 ug/ml by turbidimetric method; type: functional, Oryctolagus cuniculus
Platelet [3] = assay: Inhibition of arachidonic acid-induced platelet aggregation in rabbit platelet-rich plasma at 100 ug/ml by turbidimetric method; type: functional, Oryctolagus cuniculus
Aorta [4] = assay: Vasorelaxant activity against norepinephrine-induced phasic contraction in Wistar rat thoracic aorta at 100 ug/ml; type: functional
Aorta [5] = assay: Vasorelaxant activity against high potassium-induced contraction in Wistar rat thoracic aorta at 100 ug/ml; type: functional
Aorta [6] = assay: Vasorelaxant activity against norepinephrine-induced tonic contraction in Wistar rat thoracic aorta at 100 ug/ml; type: functional
Platelet [7] = assay: Inhibition of collagen-induced platelet aggregation in rabbit platelet-rich plasma at 100 ug/ml by turbidimetric method; type: functional, Oryctolagus cuniculus
Aorta [8] = assay: Vasorelaxant activity against high potassium-induced contraction in Wistar rat thoracic aorta at 1 ug/ml; type: functional
Aorta [9] = assay: Vasorelaxant activity against high potassium-induced contraction in Wistar rat thoracic aorta at 20 ug/ml; type: functional
Aorta [10] = assay: Vasorelaxant activity against norepinephrine-induced phasic contraction in Wistar rat thoracic aorta at 20 ug/ml; type: functional
Aorta [11] = assay: Vasorelaxant activity against norepinephrine-induced tonic contraction in Wistar rat thoracic aorta at 20 ug/ml; type: functional
Platelet [12] = assay: Inhibition of collagen-induced platelet aggregation in rabbit platelet-rich plasma at 50 ug/ml by turbidimetric method; type: functional, Oryctolagus cuniculus
Platelet [13] = assay: Inhibition of adenosine diphosphate-induced platelet aggregation in rabbit platelet-rich plasma at 50 ug/ml by turbidimetric method; type: functional, Oryctolagus cuniculus
Platelet [14] = assay: Inhibition of platelet-activity factor-induced platelet aggregation in rabbit platelet-rich plasma at 50 ug/ml by turbidimetric method; type: functional, Oryctolagus cuniculus
Aorta [15] = assay: Vasorelaxant activity against norepinephrine-induced phasic contraction in Wistar rat thoracic aorta at 50 ug/ml; type: functional
Aorta [16] = assay: Vasorelaxant activity against norepinephrine-induced tonic contraction in Wistar rat thoracic aorta at 50 ug/ml; type: functional
Aorta [17] = assay: Vasorelaxant activity against high potassium-induced contraction in Wistar rat thoracic aorta at 50 ug/ml; type: functional
Platelet [18] = assay: Inhibition of arachidonic acid-induced platelet aggregation in rabbit platelet-rich plasma at 50 ug/ml by turbidimetric method; type: functional, Oryctolagus cuniculus
Aorta [19] = assay: Vasorelaxant activity against norepinephrine-induced tonic contraction in Wistar rat thoracic aorta at 1 ug/ml; type: functional
Aorta [20] = assay: Vasorelaxant activity against norepinephrine-induced phasic contraction in Wistar rat thoracic aorta at 1 ug/ml; type: functional
Platelet [21] = assay: Inhibition of collagen-induced platelet aggregation in rabbit platelet-rich plasma at 25 ug/ml by turbidimetric method; type: functional, Oryctolagus cuniculus
Platelet [22] = assay: Inhibition of platelet-activity factor-induced platelet aggregation in rabbit platelet-rich plasma at 25 ug/ml by turbidimetric method; type: functional, Oryctolagus cuniculus
Platelet [23] = assay: Inhibition of adenosine diphosphate-induced platelet aggregation in rabbit platelet-rich plasma at 25 ug/ml by turbidimetric method; type: functional, Oryctolagus cuniculus
Platelet [24] = assay: Inhibition of arachidonic acid-induced platelet aggregation in rabbit platelet-rich plasma at 25 ug/ml by turbidimetric method; type: functional, Oryctolagus cuniculus

Row | SMILES | Activity (Platelet [1]) | Activity (Platelet [2]) | Activity (Platelet [3]) | Activity (Aorta [4]) | Activity (Aorta [5]) | Activity (Aorta [6]) | Activity (Platelet [7]) | also measured
1 | COc1cc2c(cc1O)C(Cc1ccc(O)cc1)NCC2 (racemic) [COCLAURINE] | 72.7% | 70.2% | 0% | 100% | 109.9% | 93.7% | 69.7% | 
2 | COc1cc2c(cc1OC)[C@H](Cc1ccc(O)cc1)NCC2.[O-][Cl+3]([O-])([O-])O | 78.2% | 63.1% | 60.5% | 100% | 43% | 90.5% | 83.6% | 
3 | COc1cc2c(cc1OC)[C@H](Cc1ccc(O)cc1)NCC2 [NORARMEPAVINE] | 57.8% | 69.7% | 75.5% | 121.9% | 71.2% | 105.7% | 83.4% | 
4 | COC(=O)C1=C(C)NC(C)=C(C(=O)OC)C1c1ccccc1[N+](=O)[O-] [NIFEDIPINE] |  |  |  |  |  |  |  | Activity (Aorta [8]): 0%
5 | COc1cc2ccc3c(CC[N+](C)(C)[O-])cc(OC)c(OC)c3c2cc1OC | 87.2% | 74.6% | 83.5% |  |  |  | 52.1% | Activity (Aorta [9]): 104.2%; Activity (Aorta [10]): 72.5%; Activity (Aorta [11]): 83.2%
6 | COc1cc(CC[N+](C)(C)C)c2ccc3ccccc3c2c1OC.[I-] [ATHEROSPERMINIUM I] | 0% | 0% | 0% |  |  |  | 0% | Activity (Aorta [9]): 38.3%; Activity (Aorta [10]): 108.3%; Activity (Aorta [11]): 100.5%
7 | COc1cc2ccc3c(CCN(C)C)cc4c(c3c2cc1OC)OCO4 | 80.5% | 34.9% | 46.9% | 7.1% | 44.6% | 0% | 6.1% | 
8 | COc1ccc(C[C@H]2c3cc(OC)c(OC)cc3CCN2C)cc1O [LAUDANIDINE] |  |  |  |  |  |  |  | Activity (Platelet [12]): 87.9%; Activity (Platelet [13]): 77.6%; Activity (Platelet [14]): 90%; Activity (Aorta [15]): 58.5%; Activity (Aorta [16]): 80.9%; Activity (Aorta [17]): 105%; Activity (Platelet [18]): 89%
9 | COc1cc2nc(N3CCN(C(=O)c4ccco4)CC3)nc(N)c2cc1OC [PRAZOSIN] |  |  |  |  |  |  |  | Activity (Aorta [19]): 100%; Activity (Aorta [20]): 0%
10 | COc1ccc(C[C@@H]2c3cc(OC)c(OC)cc3CCN2C)cc1OC | 92.5% | 92.2% | 81.2% |  |  |  | 81.4% | 
11 | COc1cc2c(cc1OC)[C@H](Cc1ccc(O)cc1)N(C)CC2.O=C(O)C(=O)O | 91.5% | 89.7% | 79.5% |  |  |  | 82.4% | 
12 | COc1cc2c(cc1OC)C(Cc1ccc(O)cc1)NCC2 (racemic) | 86.4% | 30.4% | 49.7% | 103% | 107.8% | 95.7% | 24.7% | 
13 | COc1ccc(C[C@@H]2NCCc3cc(OC)c(OC)cc32)cc1.O=C(O)C(=O)O | 91.4% | 93.4% | 87.3% |  |  |  | 86.6% | 
14 | COc1cc2c(cc1OC)[C@H](Cc1ccc(O)cc1)[N+](C)(C)CC2.[I-] | 88.4% | 93.7% | 66.8% |  |  |  | 39.6% | 
15 | CC(=O)Oc1ccccc1C(=O)O [ASPIRIN] |  |  |  |  |  |  |  | Activity (Platelet [21]): 87.8%; Activity (Platelet [22]): 90.4%; Activity (Platelet [23]): 77.9%; Activity (Platelet [24]): 0%
16 | COc1cc(CCN(C)C)c2ccc3ccccc3c2c1OC.[O-][Cl+3]([O-])([O-])O [ATHEROSPERMININE HCLO4] | 0% | 0% | 0% | 0% | 0% | 0% | 0% | 
17 | COc1ccc2c(ccc3c(CCN(C)O)cc4c(c32)OCO4)c1 |  |  |  | 102% | 55.8% | 91.9% |  | Activity (Platelet [12]): 23.5%; Activity (Platelet [13]): 58.6%; Activity (Platelet [14]): 74.8%; Activity (Platelet [18]): 0%
18 | COc1cc2c(cc1O)[C@@H](Cc1ccc(O)cc1)[N+](C)(C)CC2.[I-] [MAGNOCURARINE IODIDE] | 23.2% | 69% | 87.4% | 122.5% | 134.7% | 123.5% | 87.7% | 
19 | COc1cc2c(cc1O)C(Cc1ccc(O)cc1)N(C)CC2 (racemic) [METHYL COCLAURINE] | 75.7% | 73.6% | 13.8% |  |  |  | 24.8% | Activity (Aorta [9]): 70.8%; Activity (Aorta [10]): 149.6%; Activity (Aorta [11]): 106.6%
20 | COc1ccc(C[C@H]2c3cc(O)c(OC)cc3CCN2C)cc1O [(S)-RETICULINE] | 85.9% | 58.7% | 39.2% | 100% | 109.3% | 110.5% | 84.2% | 
21 | COc1ccc(C[C@H]2NCCc3cc(OC)c(OC)cc32)cc1 | 90.7% | 93.1% | 89.2% |  |  |  | 79.2% | 
22 | COc1cc(CC[N+](C)(C)[O-])c2ccc3ccccc3c2c1OC | 61.1% | 37.4% | 0% | 30% | 5.8% | 27.5% | 0% | 
23 | COc1cc2c(cc1OC)[C@@H](Cc1ccc(O)cc1)N(C)CC2.O=C(O)C(=O)O | 93.6% | 92.7% | 91.3% |  |  |  | 88.4% | 
